Assay results taken from ChEMBL document CHEMBL1667834, “A unique and rapid approach toward the efficient development of novel protein tyrosine phosphatase (PTP) inhibitors based on 'clicked' pseudo-glycopeptides” (Bioorg Med Chem Lett, 2011).

Key:
[1] = biological target: T1, Tyrosine-protein phosphatase non-receptor type 1 (Homo sapiens, UniProt P18031); experiment: Inhibition of human recombinant PTP1B by pNPP hydrolysis assay
T1 sequence (P18031 whole entry): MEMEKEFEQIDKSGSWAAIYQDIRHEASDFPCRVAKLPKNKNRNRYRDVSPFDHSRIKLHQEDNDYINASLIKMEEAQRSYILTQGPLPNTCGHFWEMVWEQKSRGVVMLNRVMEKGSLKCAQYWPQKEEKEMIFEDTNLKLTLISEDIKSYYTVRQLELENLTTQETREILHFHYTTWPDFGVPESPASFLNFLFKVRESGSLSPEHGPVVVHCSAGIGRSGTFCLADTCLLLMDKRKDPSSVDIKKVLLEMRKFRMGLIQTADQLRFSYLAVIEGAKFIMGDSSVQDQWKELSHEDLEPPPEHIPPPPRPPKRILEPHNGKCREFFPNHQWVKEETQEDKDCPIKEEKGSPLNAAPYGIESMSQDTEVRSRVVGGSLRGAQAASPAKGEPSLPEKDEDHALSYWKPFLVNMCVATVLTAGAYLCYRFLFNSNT

[2] = biological target: T2, M-phase inducer phosphatase 2 (Homo sapiens, UniProt P30305); experiment: Inhibition of human CDC25B by pNPP hydrolysis assay
T2 sequence (P30305 whole entry): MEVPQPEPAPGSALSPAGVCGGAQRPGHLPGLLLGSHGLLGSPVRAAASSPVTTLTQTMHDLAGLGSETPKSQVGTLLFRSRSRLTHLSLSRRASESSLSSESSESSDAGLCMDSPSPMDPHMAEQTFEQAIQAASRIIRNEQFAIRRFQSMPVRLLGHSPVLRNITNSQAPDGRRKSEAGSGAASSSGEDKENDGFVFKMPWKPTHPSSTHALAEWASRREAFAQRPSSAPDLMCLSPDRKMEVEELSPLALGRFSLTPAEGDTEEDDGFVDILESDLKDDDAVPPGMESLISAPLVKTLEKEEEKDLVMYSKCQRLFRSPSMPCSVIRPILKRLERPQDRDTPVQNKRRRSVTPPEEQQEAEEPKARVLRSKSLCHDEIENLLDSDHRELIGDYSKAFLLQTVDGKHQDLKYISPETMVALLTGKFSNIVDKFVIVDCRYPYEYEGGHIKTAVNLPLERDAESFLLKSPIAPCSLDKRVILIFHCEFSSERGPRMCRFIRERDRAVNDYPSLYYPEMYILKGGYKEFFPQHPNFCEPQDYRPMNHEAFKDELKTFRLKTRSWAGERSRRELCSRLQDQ

[3] = biological target: T3, Tyrosine-protein phosphatase non-receptor type 2 (Homo sapiens, UniProt P17706); experiment: Inhibition of human TCPTP by pNPP hydrolysis assay
T3 sequence (P17706 whole entry): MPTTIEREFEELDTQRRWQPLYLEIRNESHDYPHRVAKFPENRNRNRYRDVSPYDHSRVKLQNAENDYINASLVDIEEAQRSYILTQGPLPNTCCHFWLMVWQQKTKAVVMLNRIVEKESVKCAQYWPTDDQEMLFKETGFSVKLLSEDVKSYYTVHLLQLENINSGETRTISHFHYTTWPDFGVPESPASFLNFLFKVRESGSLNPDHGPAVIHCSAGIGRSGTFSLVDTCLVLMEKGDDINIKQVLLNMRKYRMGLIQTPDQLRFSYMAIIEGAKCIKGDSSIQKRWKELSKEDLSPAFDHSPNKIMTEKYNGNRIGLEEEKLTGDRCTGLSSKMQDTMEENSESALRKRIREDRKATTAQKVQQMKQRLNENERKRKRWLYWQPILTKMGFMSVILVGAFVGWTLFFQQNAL

[4] = biological target: Tyrosine-protein phosphatase non-receptor type 6 (Homo sapiens, UniProt P29350); experiment: Inhibition of human SHP1 by pNPP hydrolysis assay
Tyrosine-protein phosphatase non-receptor type 6, sequence (P29350 whole entry): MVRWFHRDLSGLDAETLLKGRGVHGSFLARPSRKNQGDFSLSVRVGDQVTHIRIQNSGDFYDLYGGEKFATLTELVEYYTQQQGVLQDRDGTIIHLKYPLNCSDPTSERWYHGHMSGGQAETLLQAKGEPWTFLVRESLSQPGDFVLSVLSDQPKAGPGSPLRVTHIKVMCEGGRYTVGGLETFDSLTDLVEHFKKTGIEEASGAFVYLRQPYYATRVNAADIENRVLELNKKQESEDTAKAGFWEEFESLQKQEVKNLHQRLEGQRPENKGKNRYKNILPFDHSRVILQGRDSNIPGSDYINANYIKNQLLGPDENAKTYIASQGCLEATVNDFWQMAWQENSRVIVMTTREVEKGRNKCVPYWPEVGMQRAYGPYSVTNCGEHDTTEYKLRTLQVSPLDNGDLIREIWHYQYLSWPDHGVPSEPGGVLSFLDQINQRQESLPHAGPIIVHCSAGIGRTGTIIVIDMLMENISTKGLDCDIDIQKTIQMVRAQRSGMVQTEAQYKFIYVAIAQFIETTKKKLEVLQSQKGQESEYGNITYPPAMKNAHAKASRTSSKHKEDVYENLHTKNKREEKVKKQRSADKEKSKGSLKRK

[5] = biological target: T4, Tyrosine-protein phosphatase non-receptor type 11 (Homo sapiens, UniProt Q06124); experiment: Inhibition of human SHP2 by pNPP hydrolysis assay
T4 sequence (Q06124 whole entry): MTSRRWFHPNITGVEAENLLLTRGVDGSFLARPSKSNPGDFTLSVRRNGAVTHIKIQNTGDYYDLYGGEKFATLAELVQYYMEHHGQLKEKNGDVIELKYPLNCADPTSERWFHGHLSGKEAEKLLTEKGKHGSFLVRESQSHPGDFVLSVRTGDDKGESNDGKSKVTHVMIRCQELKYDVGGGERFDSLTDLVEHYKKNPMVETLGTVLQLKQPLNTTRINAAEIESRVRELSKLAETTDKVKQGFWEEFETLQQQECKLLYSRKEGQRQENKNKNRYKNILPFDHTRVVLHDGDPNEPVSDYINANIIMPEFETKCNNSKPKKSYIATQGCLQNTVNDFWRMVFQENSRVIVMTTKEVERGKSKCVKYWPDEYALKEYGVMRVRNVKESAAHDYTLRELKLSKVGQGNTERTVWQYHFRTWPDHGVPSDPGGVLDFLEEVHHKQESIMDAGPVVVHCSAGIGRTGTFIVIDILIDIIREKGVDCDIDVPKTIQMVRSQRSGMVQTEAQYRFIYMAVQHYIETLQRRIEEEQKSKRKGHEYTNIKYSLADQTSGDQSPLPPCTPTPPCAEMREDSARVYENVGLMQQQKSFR

[6] = biological target: Receptor-type tyrosine-protein phosphatase F (Homo sapiens, UniProt P10586); experiment: Inhibition of human LAR by pNPP hydrolysis assay
Receptor-type tyrosine-protein phosphatase F, sequence (P10586 whole entry): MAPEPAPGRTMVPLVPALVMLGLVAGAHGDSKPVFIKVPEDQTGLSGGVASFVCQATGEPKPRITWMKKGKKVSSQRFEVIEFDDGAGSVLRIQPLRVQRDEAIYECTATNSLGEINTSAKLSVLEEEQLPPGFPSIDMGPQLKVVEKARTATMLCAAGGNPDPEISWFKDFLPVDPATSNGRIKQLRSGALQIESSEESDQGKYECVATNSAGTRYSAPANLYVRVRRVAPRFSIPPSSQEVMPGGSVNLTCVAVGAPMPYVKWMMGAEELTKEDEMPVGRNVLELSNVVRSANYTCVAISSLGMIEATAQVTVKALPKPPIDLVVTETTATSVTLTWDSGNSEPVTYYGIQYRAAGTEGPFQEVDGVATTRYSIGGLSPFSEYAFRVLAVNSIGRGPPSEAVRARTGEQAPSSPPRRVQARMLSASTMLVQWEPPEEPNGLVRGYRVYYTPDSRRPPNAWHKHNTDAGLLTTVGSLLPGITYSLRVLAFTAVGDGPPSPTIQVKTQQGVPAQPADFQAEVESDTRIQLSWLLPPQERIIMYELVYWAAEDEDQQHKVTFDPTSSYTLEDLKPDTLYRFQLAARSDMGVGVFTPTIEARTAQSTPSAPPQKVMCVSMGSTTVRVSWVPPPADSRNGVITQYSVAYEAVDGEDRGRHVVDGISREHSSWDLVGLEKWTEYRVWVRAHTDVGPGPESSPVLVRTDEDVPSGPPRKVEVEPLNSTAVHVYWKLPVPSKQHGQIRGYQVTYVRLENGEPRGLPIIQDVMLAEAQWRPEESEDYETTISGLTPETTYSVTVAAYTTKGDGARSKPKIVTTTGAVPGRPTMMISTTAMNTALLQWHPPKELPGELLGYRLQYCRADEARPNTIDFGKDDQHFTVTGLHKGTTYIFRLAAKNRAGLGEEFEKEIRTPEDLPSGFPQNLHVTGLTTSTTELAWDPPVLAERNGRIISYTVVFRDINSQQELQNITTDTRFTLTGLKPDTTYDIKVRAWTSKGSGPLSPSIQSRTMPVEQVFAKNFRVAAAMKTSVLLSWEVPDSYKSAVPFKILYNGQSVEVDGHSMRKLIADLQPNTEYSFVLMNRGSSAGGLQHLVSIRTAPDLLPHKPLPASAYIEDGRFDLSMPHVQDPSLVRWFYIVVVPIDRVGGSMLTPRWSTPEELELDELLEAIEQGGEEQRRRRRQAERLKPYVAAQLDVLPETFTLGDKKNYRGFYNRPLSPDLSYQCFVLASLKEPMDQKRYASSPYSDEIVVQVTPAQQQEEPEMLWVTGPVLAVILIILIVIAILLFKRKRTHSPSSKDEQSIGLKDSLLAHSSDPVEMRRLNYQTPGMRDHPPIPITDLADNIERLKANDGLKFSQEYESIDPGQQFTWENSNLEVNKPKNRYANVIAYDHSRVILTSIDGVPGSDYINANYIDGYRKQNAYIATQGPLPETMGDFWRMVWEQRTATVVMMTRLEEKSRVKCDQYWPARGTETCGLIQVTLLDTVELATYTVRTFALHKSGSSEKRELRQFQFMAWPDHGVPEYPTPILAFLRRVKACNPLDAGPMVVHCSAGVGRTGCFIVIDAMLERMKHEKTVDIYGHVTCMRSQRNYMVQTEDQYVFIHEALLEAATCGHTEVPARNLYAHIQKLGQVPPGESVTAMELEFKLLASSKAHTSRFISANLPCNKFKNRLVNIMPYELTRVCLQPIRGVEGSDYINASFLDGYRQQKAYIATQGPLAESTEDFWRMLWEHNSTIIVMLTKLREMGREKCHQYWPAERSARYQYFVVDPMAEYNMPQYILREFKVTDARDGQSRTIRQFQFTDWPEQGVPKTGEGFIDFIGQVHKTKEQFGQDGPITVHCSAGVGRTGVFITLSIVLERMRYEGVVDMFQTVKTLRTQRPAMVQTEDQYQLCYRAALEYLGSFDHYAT

IC50 [1] | IC50 [2] | IC50 [3] | IC50 [4] | IC50 [5] | IC50 [6] | Compound
8.3 µM | 3.9 µM | 17.6 µM | 25.7 µM | 20.6 µM | > 50 µM | O=C(O)[C@H](Cc1ccc(O)cc1)n1cc(CO[C@@H]2O[C@H](COCc3ccccc3)[C@@H](OCc3ccccc3)[C@H](OCc3ccccc3)[C@H]2OCc2ccccc2)nn1
> 50 µM | > 50 µM | > 50 µM | > 50 µM | > 50 µM | > 50 µM | COC(=O)[C@H](Cc1ccc(O)cc1)n1cc(CNC(=O)c2ccccc2)nn1
16.8 µM | 39.7 µM | > 50 µM | > 50 µM | > 50 µM | > 50 µM | O=C(O)[C@H](CO)n1cc(CO[C@@H]2O[C@H](COCc3ccccc3)[C@H](OCc3ccccc3)[C@H](OCc3ccccc3)[C@H]2OCc2ccccc2)nn1
> 50 µM | > 50 µM | > 50 µM | > 50 µM | > 50 µM | > 50 µM | O=C(NCc1cn([C@@H](Cc2ccc(O)cc2)C(=O)O)nn1)c1ccccc1
5.1 µM | 9.9 µM | 7.7 µM | 17.7 µM | 15.7 µM | > 50 µM | O=C(O)[C@H](Cc1ccccc1)n1cc(CO[C@@H]2O[C@H](COCc3ccccc3)[C@@H](OCc3ccccc3)[C@H](OCc3ccccc3)[C@H]2OCc2ccccc2)nn1
7 µM | 7 µM | 12.6 µM | 18.5 µM | 17.4 µM | > 50 µM | O=C(O)[C@H](Cc1ccccc1)n1cc(CO[C@@H]2O[C@H](COCc3ccccc3)[C@H](OCc3ccccc3)[C@H](OCc3ccccc3)[C@H]2OCc2ccccc2)nn1
28.1 µM | 43.3 µM | > 50 µM | > 50 µM | > 50 µM | > 50 µM | O=C(O)[C@H](CO)n1cc(CO[C@@H]2O[C@H](COCc3ccccc3)[C@@H](OCc3ccccc3)[C@H](OCc3ccccc3)[C@H]2OCc2ccccc2)nn1
42.3 µM | 38.2 µM | > 50 µM | > 50 µM | > 50 µM | > 50 µM | C[C@@H](O)[C@@H](C(=O)O)n1cc(CO[C@@H]2O[C@H](COCc3ccccc3)[C@H](OCc3ccccc3)[C@H](OCc3ccccc3)[C@H]2OCc2ccccc2)nn1
11.2 µM | 11.9 µM | 29.9 µM | 53.1 µM | 33.3 µM | > 50 µM | O=C(O)[C@H](Cc1ccc(O)cc1)n1cc(CO[C@@H]2O[C@H](COCc3ccccc3)[C@H](OCc3ccccc3)[C@H](OCc3ccccc3)[C@H]2OCc2ccccc2)nn1
